Results reported in patent US20230096028A1, “BICYCLIC HETEROCYCLYL COMPOUNDS AND USES THEREOF” (Revolution Medicines, Inc., priority 2019, published 2023).

Tests used:
[1] = biological target: T1, SOS1 catalytic domain (residues 564-1049) (Homo sapiens, UniProt Q07889); experiment: Mode of Action Assay: inhibition of SOS1 nucleotide exchange activity (SOS1 TR-FRET IC50 Assay)
T1 sequence (Q07889 564-1049): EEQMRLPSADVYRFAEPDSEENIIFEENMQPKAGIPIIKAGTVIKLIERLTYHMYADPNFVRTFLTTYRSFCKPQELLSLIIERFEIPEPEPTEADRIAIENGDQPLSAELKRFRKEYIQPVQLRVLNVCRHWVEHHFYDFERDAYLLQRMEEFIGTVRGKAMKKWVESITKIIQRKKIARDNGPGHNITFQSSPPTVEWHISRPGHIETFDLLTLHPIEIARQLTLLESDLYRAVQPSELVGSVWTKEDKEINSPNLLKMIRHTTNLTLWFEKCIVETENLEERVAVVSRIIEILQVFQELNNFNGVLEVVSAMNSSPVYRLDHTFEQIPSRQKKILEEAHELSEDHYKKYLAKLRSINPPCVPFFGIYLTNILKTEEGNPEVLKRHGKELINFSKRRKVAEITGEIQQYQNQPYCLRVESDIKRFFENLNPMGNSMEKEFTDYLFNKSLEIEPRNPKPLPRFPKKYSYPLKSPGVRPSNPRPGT

[2] = test system: PC-9 cells (EGFR Ex19Del); experiment: Potency Assay: pERK (SOS1 pERK IC50 Assay, AlphaLISA SureFire Ultra p-ERK1/2); type: cell-based; conditions: Homo sapiens; PC-9 cells (EGFR Ex19Del), 1 hour incubation, AlphaLISA p-ERK1/2; read-out: SOS1 pERK IC50
Summary of the method: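 Cellular pERK1/2 by AlphaLISA SureFire Ultra after 1 h compound exposure (37° C., highest concentration 10 μM, 3-fold steps, duplicates) of EGFR Ex19Del PC-9 cells seeded the day before. A 4-parameter fit of signal versus log concentration gives IC50.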

[3] = biological target: T1, SOS1 catalytic domain (residues 564-1049); experiment: Potency Assay: binding affinity to SOS1 using Surface Plasmon Resonance (SPR); parameters: SOS1 catalytic domain (residues 564-1049) immobilized on a sensor chip; conditions: immobilized SOS1 catalytic domain (residues 564-1049), read-out: SOS1 SPR Equilibrium Kd
Summary of the method: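 Kd was obtained by plotting binding response, taken just before association ended, versus compound concentration on a Biacore 8K. Compounds flowed at 50 μL/min over streptavidin-captured avi-SOS1 catalytic domain (~6000 RU), followed by buffer dissociation; HEPES 0.01 M/NaCl 0.15 M/0.05% P20 buffer, double-referenced.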

SMILES | IC50 [1] | IC50 [2] | Kd [3]
C[C@@H](Nc1nc(Cl)nc2c1CN(C(=O)C1(C#N)CN(C)C1)C2)c1cccc(C(F)F)c1F [Example 337] | < 1000 nM | > 1000 nM | < 400 nM
C[C@@H](Nc1nc(Cl)nc2c1CN(C(=O)C1(O)COC1)CC2)c1cc(N)cc(C(F)(F)F)c1 [Example 226] | > 1000 nM | > 1000 nM | < 400 nM
C[C@@H](Nc1nc(Cl)nc2c1CN(C(=O)C1CNCCO1)C2)c1cccc(C(F)F)c1F (stereo partly drawn) [Example 288] | < 1000 nM | < 1000 nM | < 400 nM
C[C@@H](Nc1nc(Cl)nc2c1CN(C(=O)N1CC3(CNC3)C1)C2)c1cccc(C(F)F)c1F [Example 393] | < 1000 nM | > 1000 nM | < 400 nM
C[C@@H](Nc1nc(Cl)nc2c1CN(C(=O)N1CCNC(C(F)(F)F)C1)C2)c1cccc(C(F)F)c1F (stereo partly drawn) [Example 387] | < 1000 nM | < 1000 nM | < 400 nM
C[C@@H](Nc1nc(Cl)nc2c1C[C@@H](N1CCOCC1)CC2)c1cccc(C(F)(F)CO)c1 [Example 436] | < 1000 nM | < 1000 nM | < 400 nM
C[C@@H](Nc1nc(Cl)nc2c1CN(C(=O)CC1COCCN1)C2)c1cccc(C(F)F)c1F (stereo partly drawn) [Example 291] | < 1000 nM | < 1000 nM | > 400 nM
C[C@@H](Nc1nc(Cl)nc2c1CN(C(=O)N1CCOCC1)C2)c1cccc(C(F)(F)CO)c1 [Example 168, [2-chloro-4-[[(1R)-1-[3-(1,1-difluoro-2-hydroxy-ethyl)phenyl]ethyl]amino]-5,7-dihydropyrrolo[3,4-d]pyrimidin-6-yl]-morpholino-methanone] | < 1000 nM | < 1000 nM | < 400 nM
C[C@@H](Nc1nc(Cl)nc2c1CN(C(=O)N1CC3CNCC(C1)O3)C2)c1cccc(C(F)F)c1F [Example 398] | < 1000 nM | > 1000 nM | < 400 nM
C[C@@H](Nc1nc(Cl)nc2c1CN(S(=O)(=O)CCO)CC2)c1cc(N)cc(C(F)(F)F)c1 [Example 457] | < 1000 nM | < 1000 nM | < 400 nM
C[C@@H](Nc1nc(CNC2CC2)nc2c1CN(C(=O)N1CCOCC1)C2)c1cccc(C(F)F)c1F [Example 508, 2-[(cyclopropylamino)methyl]-N-{1-[3-(difluoromethyl)-2-fluorophenyl]ethyl}-6-(morpholine-4-carbonyl)-5H,6H,7H-pyrrolo[3,4-d]pyrimidin-4-amine] | < 1000 nM | > 1000 nM | < 400 nM
C[C@@H](Nc1nc(Cl)nc2c1CN(C(=O)N1CCOc3cccnc31)C2)c1cc(N)cc(C(F)(F)F)c1 [Example 160] | < 1000 nM | < 1000 nM | < 400 nM
C[C@@H](Nc1nc(Cl)nc2c1CN(C(=O)N1CCOCC1)C2)c1cccc(C(F)(F)C2COCCN2C)c1 (stereo partly drawn) [Example 460, (2-chloro-4-(((1R)-1-(3-(difluoro(4-methylmorpholin-3-yl)methyl)phenyl)ethyl)amino)-5,7-dihydro-6H-pyrrolo[3,4-d]pyrimidin-6-yl)(morpholino)methanone] | < 1000 nM | < 1000 nM | < 400 nM
C[C@@H](Nc1nc(Cl)nc2c1CN(C(=O)c1cccc(Cl)n1)C2)c1cc(N)cc(C(F)(F)F)c1 [Example 87] | > 1000 nM | < 1000 nM | > 400 nM
COC1(C(=O)N2Cc3nc(Cl)nc(N[C@H](C)c4cccc(C(F)(F)F)c4)c3C2)CCNCC1 [Example 315] | < 1000 nM | < 1000 nM | < 400 nM
C[C@@H](Nc1nc(Cl)nc2c1CN(C(=O)N1CCNC(C(F)(F)F)C1)C2)c1cc(N)cc(C(F)(F)F)c1 (stereo partly drawn) [Example 359] | < 1000 nM | < 1000 nM | < 400 nM
CC(Nc1nc(Cl)nc2c1CN(C(=O)N1CCOCC1)C2)c1cc(O)cc(C(F)(F)F)c1 (stereo not drawn) [Example 40, [2-chloro-4-[1-[3-hydroxy-5-(trifluoromethyl)phenyl]ethylamino]-5,7-dihydropyrrolo[3,4-d]pyrimidin-6-yl]-morpholino-methanone] | > 1000 nM | > 1000 nM | > 400 nM

SMILES | IC50 [1] | IC50 [2] | Kd [3]
C[C@@H](Nc1nc(Cl)nc2c1CN(C(=O)N1CCNc3ncncc31)C2)c1cccc(C(F)(F)F)c1 [Example 362] | < 1000 nM | < 1000 nM | < 400 nM
C[C@@H](Nc1nc(Cl)nc2c1CN(C(=O)C1CCNCC1(F)F)C2)c1cccc(C(F)F)c1F (stereo partly drawn) [Example 311] | < 1000 nM | < 1000 nM | < 400 nM
C[C@@H](Nc1nc(Cl)nc2c1CN(S(=O)(=O)c1c[nH]cn1)CC2)c1cc(N)cc(C(F)(F)F)c1 [Example 458] | < 1000 nM | < 1000 nM | < 400 nM
C[C@@H](Nc1nc(Cl)nc2c1CN(C(=O)[C@@H]1COCCN1)C2)c1cccc(C(F)(F)F)c1 [Example 275] | < 1000 nM | > 1000 nM | > 400 nM
C[C@@H](Nc1nc(Cl)nc2c1CN(C(=O)N1CCC13CNC3)C2)c1cccc(C(F)F)c1F [Example 392] | < 1000 nM | > 1000 nM | < 400 nM
CC(Nc1nc(Cl)nc2c1CN(C(=O)N1CCOCC1)C2)c1cccc2c1OCCC2(F)F (stereo not drawn) [Example 476, 2-chloro-N-[1-(4,4-difluoro-3,4-dihydro-2H-1-benzopyran-8-yl)ethyl]-6-(morpholine-4-carbonyl)-5H,6H,7H-pyrrolo[3,4-d]pyrimidin-4-amine] | < 1000 nM | > 1000 nM | < 400 nM
C[C@@H](Nc1nc(Cl)nc2c1CN(C(=O)N1CCOCC1)C2)c1cccc(C(F)F)c1F [Example 537] | < 1000 nM | < 1000 nM | < 400 nM
C[C@@H](Nc1nc(Cl)nc2c1CN(C(=O)c1cccnn1)CC2)c1cc(N)cc(C(F)(F)F)c1 [Example 235] | < 1000 nM | > 1000 nM | > 400 nM
C[C@@H](Nc1nc(Cl)nc2c1CN(C(=O)C1(CO)COC1)CC2)c1cc(N)cc(C(F)(F)F)c1 [Example 225] | < 1000 nM | < 1000 nM | < 400 nM
C[C@@H](Nc1ncnc2c1CN(C(=O)N1CCOCC1)C2)c1cccc(C(F)F)c1F [Example 389] | < 1000 nM | > 1000 nM | < 400 nM
COc1nccnc1C(=O)N1CCc2nc(Cl)nc(N[C@H](C)c3cc(N)cc(C(F)(F)F)c3)c2C1 [Example 231] | > 1000 nM | > 1000 nM | > 400 nM
C[C@@H](Nc1nc(Cl)nc2c1CN(C(=O)[C@@H]1CNCCO1)C2)c1cccc(C(F)(F)F)c1 [Example 278] | < 1000 nM | < 1000 nM | < 400 nM
C[C@@H](Nc1nc(Cl)nc2c1CN(S(=O)(=O)C1CNC1)C2)c1cc(N)cc(C(F)(F)F)c1 [Example 48] | < 1000 nM | > 1000 nM | < 400 nM
C[C@@H](Nc1nc(Cl)nc2c1CN(C(=O)N1CC3CC1CN3C1COC1)C2)c1cccc(C(F)F)c1F (stereo partly drawn) [Example 421] | < 1000 nM | < 1000 nM | < 400 nM
C[C@@H](Nc1nc(Cl)nc2c1CN(C(=O)[C@H]1CNCCO1)C2)c1cccc(C(F)(F)F)c1 [Example 281] | < 1000 nM | < 1000 nM | < 400 nM
C[C@@H](Nc1nc(Cl)nc2c1CN(C(=O)c1ccccn1)C2)c1cc(N)cc(C(F)(F)F)c1 [Example 65] | < 1000 nM | < 1000 nM | > 400 nM
